Experimental findings from patent publication US20250197425A1, “2,6,9-TRISUBSTITUTED PURINES” (ASTRAZENECA AB, priority 2022, published 2025) are described below.

≈ marks a conversion by molar mass, not a printed value. Like-named read-outs stand apart in the source and are kept apart here.

Data set [1] in a line: CLint assessment in human liver microsomes (HLM). Conditions: 1 μM. The data set is classed as in vitro ADME. The procedure: After a preincubation with NADPH for 8 minutes, reactions were initiated through the addition of the test compound (final volume 250 μl) and incubated at 37° C. in a water bath for 30 minutes. […] Samples were shaken at 800 rpm for 2 minutes and centrifuged at 4000 rpm for 20 minutes at 4° C. to pellet precipitated protein. The supernatant fraction was diluted 1:5 with deionized water, shaken at 1000 rpm for 2 minutes, and further diluted 1:1 with deionized water. Samples were analyzed by LC-MS/MS. The t1/2 and the CLint of the compounds incubated in the LM, HLM, and HμREL assays as described above were calculated according to the following equations: […] where V (μl/×10^6 cells or mg protein) is the incubation volume (μl) divided by the number of cells (×10^6) or microsomal protein content (mg) in the incubation.

Data set [2] deals with CDK2:CCNE1 (Homo sapiens (Human), UniProt P24941). The data set can be described thus: NanoBRET assay in MCF-7 cells, CDK2. The data set is classed as cell-based. The following applies: transfected MCF-7 cells, 2 hours, n = 1 or average. On the procedure:
Compounds were tested in breast cancer cell line MCF-7 to assess inhibition of CDK1, CDK2, and CDK4 activity. […] The next day media were evacuated from the wells using the Bluewasher centrifugal plate washer (Bluecatbio) and 10 μL/well phenol red free OptiMEM was then added using a Multidrop Combi. […] Immediately after compound addition, a Tecan HP300 dispensor was used to dispense the relevant NanoBRET™ tracer to the CDK1 wells (12.5 nl, 400 μM, NanoBRET™ TE Tracer K-9), the CDK2 wells (12.5 nl, 200 μM, NanoBRET™ TE Tracer K-9), and the CDK4 wells (8 nl, 100 μM, NanoBRET™ TE Tracer K-7) and the plates were incubated for 2 hours at 37° C. and 5% CO2. […] The plates were incubated in subdued lighting for 10 minutes and then read on a Pherastar FS plate reader (BMG Technologies) using a NanoBRET™ filter module (460±80 nm/610 nm-LP). The ratio values were normalized to controls and the IC50 values of test compounds determined using Genedata Screener software.

For data set [3], the system named is NPM phosphorylation (Thr199, CDK2-cyclin E complex). The data set can be described thus: NPM phosphorylation imaging assay in MCF-7 cells. The following applies: 4N DNA cells. The data set is classed as cell-based. On the procedure: Compounds were tested to assess the effects of CDK2 inhibition in a cellular context. […] During the cell cycle, the CDK2-cyclin E complex phosphorylates NPM at Thr199 which is a prerequisite step for initiation of centrosome duplication.
The cells were fixed by addition of 40 μL/well of 8% paraformaldehyde and incubated at room temperature for 10 minutes. The plates were washed three times with 50 μL/well PBS using a Biotek EL406 plate washer and then permeabilized for 10 minutes at room temperature in 0.3% Triton X100 in PBS. After washing as before, the plates were blocked using 30 μL/well of 2% BSA (w/v) in PBS-T for at least 30 minutes at room temperature. […] Cells containing 4N DNA were selected using the Hoechst staining. Phospho-NPM levels were normalized to controls and the IC50 values of test compounds determined using Genedata Screener software.

Data set [4] addresses CDK4:CCND1 (Homo sapiens (Human), UniProt P11802). Nature of the data set: NanoBRET assay in MCF-7 cells, CDK4. The data set is classed as cell-based. The following applies: NanoBRET, transfected MCF-7 cells, 2 hours; n = 1 or average; read-out: CDK4 IC50. The procedure:
(§1) Compounds were tested in breast cancer cell line MCF-7 to assess inhibition of CDK1, CDK2, and CDK4 activity. MCF-7 cells transiently transfected with CDK1:CCNB1, CDK2:CCNE1, or CDK4:CCND1 were harvested at a density of 1E5 cells/mL in complete media, seeded 20 μL/well into 384-well Greiner 784080 plates using a Multidrop Combi, and incubated overnight at 37° C. and 5% CO2. The next day media were evacuated from the wells using the Bluewasher centrifugal plate washer (Bluecatbio) and 10 μL/well phenol red free OptiMEM was then added using a Multidrop Combi. […] Immediately after compound addition, a Tecan HP300 dispensor was used to dispense the relevant NanoBRET™ tracer to the CDK1 wells (12.5 nl, 400 μM, NanoBRET™ TE Tracer K-9), the CDK2 wells (12.5 nl, 200 μM, NanoBRET™ TE Tracer K-9), and the CDK4 wells (8 nl, 100 μM, NanoBRET™ TE Tracer K-7) and the plates were incubated for 2 hours at 37° C. and 5% CO2. The plates were allowed to cool for 10 minutes at room temperature and 5 μL/well of TE Nano-Glo®Substrate/Inhibitor at 2.4 μM and 1:500 respectively (N2162 Promega) was added. The plates were incubated in subdued lighting for 10 minutes and then read on a Pherastar FS plate reader (BMG Technologies) using a NanoBRET™ filter module (460±80 nm/610 nm-LP). The ratio values were normalized to controls and the IC50 values of test compounds determined using Genedata Screener software.

Data set [5] in a line: Aqueous thermodynamic solubility, shake-flask. The data set is classed as physicochemical. The following applies: phosphate buffer 0.1 M, pH 7.4, 24 hours. An outline of the steps:
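Dried compound (after DMSO evaporation) was equilibrated in 0.1 M phosphate buffer pH 7.4 with stirring for 24 h at 25° C. Undissolved material was removed by double centrifugation, and the supernatant was diluted in water and quantified by UPLC/MS/MS.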

Data set [6] relates to OVCAR3 cells. Nature of the data set: Cellular proliferation EdU assay, OVCAR3. The data set is classed as cell-based, human. The following applies: EdU assay, two days, read-out: OVCAR3 IC50. In a few lines:
(§2)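 MCF-7 (800 cells/well) and OVCAR3 (1200 cells/well) in RPMI with 10% FBS exposed to compounds for two days at 37 °C.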

Data set [7] has as its target CDK1:CCNB1 (Homo sapiens (Human), UniProt P06493). Nature of the data set: NanoBRET assay in MCF-7 cells, CDK1. Conditions: NanoBRET, transfected MCF-7 cells, 2 hours; n = 1 or average; read-out: CDK1 IC50. In kind it is cell-based. The procedure: as §1
Data set [8] concerns POLR2A Ser2 phosphorylation (CDK9). The data set can be described thus: POLR2A Ser2 phosphorylation imaging assay in MCF-7 cells. The data set is classed as cell-based. Conditions: MCF-7 cells, 2 hours, read-out: POLR2A Ser2 phosphorylation IC50. An outline of the steps: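 MCF-7 cells were fixed, permeabilised and immunostained for POLR2A phospho-Ser2, then imaged by high-content microscopy. Levels were normalised to controls and IC50 values derived.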

Data set [9] concerns MCF-7 cells. The data set can be described thus: Cellular proliferation EdU assay, MCF-7. The data set is classed as cell-based. The following applies: EdU assay, two days, read-out: MCF-7 IC50. In a few lines: as §2
The mark [10] stands for this setting: aqueous phosphate buffer, 25 °C, pH 7.4, aqueous buffer, thermodynamic from solid.

Chain of CDK4:CCND1 (P11802 whole entry): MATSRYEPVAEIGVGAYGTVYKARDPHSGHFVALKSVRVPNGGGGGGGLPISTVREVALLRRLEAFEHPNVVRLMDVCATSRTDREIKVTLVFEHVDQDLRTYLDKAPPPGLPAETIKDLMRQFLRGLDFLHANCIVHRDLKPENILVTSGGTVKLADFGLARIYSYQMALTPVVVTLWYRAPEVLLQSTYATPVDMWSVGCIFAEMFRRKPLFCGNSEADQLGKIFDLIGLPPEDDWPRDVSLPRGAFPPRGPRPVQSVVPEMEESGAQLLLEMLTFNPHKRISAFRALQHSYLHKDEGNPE
Chain of CDK4:CCND1 (P24385 whole entry partner): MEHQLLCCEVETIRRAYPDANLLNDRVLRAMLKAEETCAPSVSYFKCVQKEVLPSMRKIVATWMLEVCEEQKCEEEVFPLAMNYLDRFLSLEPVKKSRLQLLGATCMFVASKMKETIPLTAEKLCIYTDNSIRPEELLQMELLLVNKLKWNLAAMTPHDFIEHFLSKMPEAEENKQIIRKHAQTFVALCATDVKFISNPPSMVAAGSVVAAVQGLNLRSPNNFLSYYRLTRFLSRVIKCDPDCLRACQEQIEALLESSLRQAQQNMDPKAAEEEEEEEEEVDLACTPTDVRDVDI
Chain of CDK1:CCNB1 (P06493 whole entry): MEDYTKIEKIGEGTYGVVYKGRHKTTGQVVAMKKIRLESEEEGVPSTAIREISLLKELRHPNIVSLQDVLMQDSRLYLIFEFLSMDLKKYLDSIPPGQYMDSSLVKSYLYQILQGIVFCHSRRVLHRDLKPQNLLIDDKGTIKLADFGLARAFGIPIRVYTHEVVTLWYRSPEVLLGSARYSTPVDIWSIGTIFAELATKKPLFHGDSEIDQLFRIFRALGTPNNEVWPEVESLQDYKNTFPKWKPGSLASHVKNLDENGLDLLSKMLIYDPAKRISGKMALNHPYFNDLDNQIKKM
Chain of CDK1:CCNB1 (P14635 whole entry partner): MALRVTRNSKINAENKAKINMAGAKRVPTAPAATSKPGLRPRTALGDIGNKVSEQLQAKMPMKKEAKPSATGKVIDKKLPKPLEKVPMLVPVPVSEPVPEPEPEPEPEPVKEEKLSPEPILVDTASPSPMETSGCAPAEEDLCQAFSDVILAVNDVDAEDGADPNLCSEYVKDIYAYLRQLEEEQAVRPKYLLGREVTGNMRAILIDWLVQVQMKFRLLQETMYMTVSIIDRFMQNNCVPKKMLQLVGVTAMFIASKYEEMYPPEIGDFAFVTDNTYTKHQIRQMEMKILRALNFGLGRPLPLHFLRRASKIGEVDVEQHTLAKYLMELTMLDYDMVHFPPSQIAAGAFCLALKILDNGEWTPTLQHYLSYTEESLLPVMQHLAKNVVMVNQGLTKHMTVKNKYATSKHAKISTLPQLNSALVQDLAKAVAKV

With `CCNS(=O)(=O)N1CC[C@H](Nc2nc(N[C@@H](C)C(C)(C)O)nc3c2ncn3CC)C1` (relative stereo) [Example 59, (S)—N-ethyl-3-((9-ethyl-2-(((R*)-3-hydroxy-3-methylbutan-2-yl)-amino)-9H-purin-6-yl)amino)pyrrolidine-1-sulfonamide], the “HLM CLint” value in [1] amounted to 35.9 µL/min/mg. Further, the IC50 is 37 nM in data set [2]; 337 nM in data set [3] (Homo sapiens, MCF7, 2 h); 11400 nM in data set [4]; 950 nM in data set [6] (Homo sapiens, OVCAR-3, 48 h); 1690 nM in [7]; above 30000 nM in [8] (Homo sapiens, MCF7, 2 h). Besides, in data set [9] (Homo sapiens, MCF7, 48 h), the IC50 amounted to 1780 nM. In data set [5] (setting [10]), this compound gave a solubility at 24 h above 1000 µM.
`CCn1cnc2c(N[C@H]3CCN(S(=O)(=O)NC)C3)nc(N[C@@H](C)[C@@H](O)C(F)(F)F)nc21` (single isomer, unassigned) [Example 49, (S)-3-((9-ethyl-2-(((2R*,3S*)-4,4,4-trifluoro-3-hydroxybutan-2-yl)amino)-9H-purin-6-yl)amino)-N-methylpyrrolidine-1-sulfonamide]: the “HLM CLint” value in data set [1] was determined as 19.5 µL/min/mg. Moreover, the IC50 in data set [2] was determined as 13 nM; in data set [3] (2 hours), 144 nM; in [4] it was 4400 nM; in data set [6] it was 383 nM; in data set [7], 907 nM; in data set [8] (Homo sapiens, MCF7, 2 h), 20200 nM. The IC50 in data set [9] came out at 775 nM. Moreover, the solubility at 24 h in [5] (25° C.) came out at 120 µM (≈ 56 µg/mL).
For the compound `CCn1cnc2c(N[C@H]3CCN(S(=O)(=O)NC)C3)nc(N[C@@H](C)[C@@H](O)C(F)(F)F)nc21` (single isomer, unassigned) [Example 50, (S)-3-((9-ethyl-2-(((2R*,3S*)-4,4,4-trifluoro-3-hydroxybutan-2-yl)amino)-9H-purin-6-yl)amino)-N-methylpyrrolidine-1-sulfonamide], the “HLM CLint” value in [1] stood at 36.3 µL/min/mg. Further, the IC50 was 64 nM in data set [2]; 412 nM in data set [3] (2 hours); 14200 nM in [4]; 1220 nM in data set [6]; 2350 nM in data set [7]; above 30000 nM in data set [8]. In addition, in data set [9], the IC50 is 2760 nM. Moreover, in data set [5] (25° C.), the solubility at 24 h was found to be 23.1 µM (≈ 10.8 µg/mL).
On to `CCn1cnc2c(N[C@H]3CCN(S(=O)(=O)NC)C3)nc(-c3cccc4c3CNC4=O)nc21` [Example 1, (S)-3-((9-ethyl-2-(1-oxoisoindolin-4-yl)-9H-purin-6-yl)amino)-N-methylpyrrolidine-1-sulfonamide], for which the “HLM CLint” value in data set [1] is above 300 µL/min/mg. For the same compound, the IC50 in [2] was found to be 17 nM; in [3] (Homo sapiens, MCF7, 2 h), 551 nM; in data set [4] it was 11900 nM; in [6] (Homo sapiens, OVCAR-3, 48 h) it was 270 nM; in data set [7], 236 nM; in [8] (Homo sapiens, MCF7, 2 h), 13300 nM. In addition, in data set [9] (Homo sapiens, MCF7, 48 h), the IC50 was found to be 2000 nM. This compound also showed a solubility at 24 h in [5] (setting [10]) of 7 µM (≈ 3.2 µg/mL).
For `CCn1cnc2c(N[C@H]3CCN(S(=O)(=O)NC)C3)nc(-c3cccc4c3CC[C@H]4O)nc21` [Example 2, (S)-3-((9-ethyl-2-((R)-1-hydroxy-2,3-dihydro-1H-inden-4-yl)-9H-purin-6-yl)amino)-N-methylpyrrolidine-1-sulfonamide], the “HLM CLint” value in data set [1] came to 61.6 µL/min/mg. Besides, the IC50 was 29 nM in data set [2]; 301 nM in data set [3] (Homo sapiens, MCF7, 2 h); 17800 nM in data set [4]; 404 nM in [6] (Homo sapiens, OVCAR-3, 48 h); 904 nM in [7]; 15400 nM in [8] (Homo sapiens, MCF7, 2 h). In addition, in data set [9] (Homo sapiens, MCF7, 48 h), the IC50 was 1360 nM. This compound came in with a solubility at 24 h in data set [5] (setting [10]) of 55 µM (≈ 25.2 µg/mL).
Consider `CC[C@H](Nc1nc(N[C@H]2CCN(S(N)(=O)=O)C2)c2ncn(CC)c2n1)[C@@H](C)O` [Example 9, (S)-3-((9-ethyl-2-(((2R,3S)-2-hydroxypentan-3-yl)amino)-9H-purin-6-yl)amino)pyrrolidine-1-sulfonamide], for which the “HLM CLint” value in [1] turned out to be 13.4 µL/min/mg. The IC50 is 100 nM in data set [2]; 432 nM in data set [3] (Homo sapiens, MCF7, 2 h); 20200 nM in data set [4]; 486 nM in data set [6] (Homo sapiens, OVCAR-3, 48 h); 2210 nM in data set [7]; above 30000 nM in data set [8] (Homo sapiens, MCF7, 2 h). The IC50 in data set [9] (Homo sapiens, MCF7, 48 h) came out at 1060 nM. In data set [5] (setting [10]), this compound came in with a solubility at 24 h above 1000 µM.
For the compound `CC[C@H](Nc1nc(N[C@H]2CCN(S(N)(=O)=O)C2)c2ncn(CC)c2n1)C(C)=O` [Example 10, (S)-3-((9-ethyl-2-(((S)-2-oxopentan-3-yl)amino)-9H-purin-6-yl)amino)pyrrolidine-1-sulfonamide], in [1], the “HLM CLint” value is 17.6 µL/min/mg. Besides, the IC50 in data set [2] was 100 nM; in [3] (Homo sapiens, MCF7, 2 h), 481 nM; in data set [4], above 23100 nM; in data set [6] (Homo sapiens, OVCAR-3, 48 h), 1300 nM; in [7], 4620 nM; in [8] (Homo sapiens, MCF7, 2 h), above 30000 nM. In addition, the IC50 in data set [9] (Homo sapiens, MCF7, 48 h) stood at 2940 nM. For the same compound, the solubility at 24 h in [5] (setting [10]) was above 904 µM.
With `CCNS(=O)(=O)N1CC[C@H](Nc2nc(N[C@@H](CO)C3CC3)nc3c2ncn3C(F)F)C1` [Example 14, (S)-3-((2-(((R)-1-cyclopropyl-2-hydroxyethyl)amino)-9-(difluoromethyl)-9H-purin-6-yl)amino)-N-ethylpyrrolidine-1-sulfonamide], in data set [1], the “HLM CLint” value stood at 38 µL/min/mg. Besides, the IC50 in data set [2] came to 6 nM; in data set [3] (Homo sapiens, MCF7, 2 h), 41 nM; in data set [4], 1000 nM; in [6] (Homo sapiens, OVCAR-3, 48 h) it was 51 nM; in [7] it was 98 nM; in [8] (Homo sapiens, MCF7, 2 h) it was 4200 nM. Besides, the IC50 in data set [9] (Homo sapiens, MCF7, 48 h) is 111 nM. The solubility at 24 h in data set [5] (setting [10]) was found to be 320 µM (≈ 147 µg/mL).
